Experiment: xn = mol fraction of the nth substance listed

OC[C@@H](O)[C@@H](O)[C@H](O)[C@@H](O)CO + O
Conditions | viscosity [mPa·s]
293.15 K, 101 kPa, x1 = 0.0142 | 1.458
303.15 K, 101 kPa, x1 = 0.002 | 0.8134
303.15 K, 101 kPa, x1 = 0.003592 | 0.8731
303.15 K, 101 kPa, x1 = 0.004 | 0.8647
303.15 K, 101 kPa, x1 = 0.006 | 0.916
303.15 K, 101 kPa, x1 = 0.007154 | 0.948
303.15 K, 101 kPa, x1 = 0.0078 | 0.9637
303.15 K, 101 kPa, x1 = 0.008 | 0.9675
303.15 K, 101 kPa, x1 = 0.0089 | 0.9962
303.15 K, 101 kPa, x1 = 0.01 | 1.019
303.15 K, 101 kPa, x1 = 0.012 | 1.071
303.15 K, 101 kPa, x1 = 0.0122 | 1.072
303.15 K, 101 kPa, x1 = 0.0135 | 1.104
303.15 K, 101 kPa, x1 = 0.016 | 1.175
303.15 K, 101 kPa, x1 = 0.0194 | 1.277
303.15 K, 101 kPa, x1 = 0.02 | 1.279
303.15 K, 101 kPa, x1 = 0.0228 | 1.345
303.15 K, 101 kPa, x1 = 0.024 | 1.383
303.15 K, 101 kPa, x1 = 0.026 | 1.436
303.15 K, 101 kPa, x1 = 0.028 | 1.489
305.15 K, 100 kPa, x1 = 4e-05 | 0.8093
305.15 K, 100 kPa, x1 = 7e-05 | 0.8135
308.15 K, 101 kPa, x1 = 0.004 | 0.7869
308.15 K, 101 kPa, x1 = 0.006 | 0.8221
308.15 K, 101 kPa, x1 = 0.008 | 0.8763
308.15 K, 101 kPa, x1 = 0.01 | 0.9231
308.15 K, 101 kPa, x1 = 0.012 | 0.9658
308.15 K, 101 kPa, x1 = 0.014 | 1.008
308.15 K, 101 kPa, x1 = 0.016 | 1.054
308.15 K, 101 kPa, x1 = 0.018 | 1.105
308.15 K, 101 kPa, x1 = 0.02 | 1.147
308.15 K, 101 kPa, x1 = 0.022 | 1.203
308.15 K, 101 kPa, x1 = 0.024 | 1.245
308.15 K, 101 kPa, x1 = 0.026 | 1.291
308.15 K, 101 kPa, x1 = 0.028 | 1.355
310.15 K, 100 kPa, x1 = 4e-05 | 0.7489
310.15 K, 100 kPa, x1 = 7e-05 | 0.7596
313.15 K, 101 kPa, x1 = 0.002 | 0.6825
313.15 K, 101 kPa, x1 = 0.004 | 0.7202
313.15 K, 101 kPa, x1 = 0.006 | 0.7581
313.15 K, 101 kPa, x1 = 0.007154 | 0.7675
313.15 K, 101 kPa, x1 = 0.0078 | 0.7956
313.15 K, 101 kPa, x1 = 0.008 | 0.7961
313.15 K, 101 kPa, x1 = 0.0089 | 0.815
313.15 K, 101 kPa, x1 = 0.01 | 0.8344
313.15 K, 101 kPa, x1 = 0.0107 | 0.834
313.15 K, 101 kPa, x1 = 0.012 | 0.8728
313.15 K, 101 kPa, x1 = 0.0122 | 0.8704
313.15 K, 101 kPa, x1 = 0.014 | 0.9114
313.15 K, 101 kPa, x1 = 0.016 | 0.9502
313.15 K, 101 kPa, x1 = 0.0169 | 0.9712
313.15 K, 101 kPa, x1 = 0.0177 | 0.9777
313.15 K, 101 kPa, x1 = 0.018 | 0.9891
313.15 K, 101 kPa, x1 = 0.022 | 1.068
313.15 K, 101 kPa, x1 = 0.0228 | 1.077
313.15 K, 101 kPa, x1 = 0.024 | 1.107
313.15 K, 101 kPa, x1 = 0.026 | 1.147
313.15 K, 101 kPa, x1 = 0.028 | 1.187
315.15 K, 100 kPa, x1 = 4e-05 | 0.7083
315.15 K, 100 kPa, x1 = 7e-05 | 0.7362
318.15 K, 101 kPa, x1 = 0.004 | 0.6625
318.15 K, 101 kPa, x1 = 0.006 | 0.6978
318.15 K, 101 kPa, x1 = 0.008 | 0.7286
318.15 K, 101 kPa, x1 = 0.01 | 0.7647
318.15 K, 101 kPa, x1 = 0.012 | 0.796
318.15 K, 101 kPa, x1 = 0.014 | 0.8293
318.15 K, 101 kPa, x1 = 0.016 | 0.8716
318.15 K, 101 kPa, x1 = 0.018 | 0.9013
318.15 K, 101 kPa, x1 = 0.02 | 0.9433
318.15 K, 101 kPa, x1 = 0.022 | 0.9822
318.15 K, 101 kPa, x1 = 0.024 | 1.015
318.15 K, 101 kPa, x1 = 0.026 | 1.06
318.15 K, 101 kPa, x1 = 0.028 | 1.089
323.15 K, 101 kPa, x1 = 0.002 | 0.5854
323.15 K, 101 kPa, x1 = 0.003592 | 0.5894
323.15 K, 101 kPa, x1 = 0.004 | 0.6131
323.15 K, 101 kPa, x1 = 0.006 | 0.6414
323.15 K, 101 kPa, x1 = 0.0078 | 0.6663
323.15 K, 101 kPa, x1 = 0.008 | 0.6702
323.15 K, 101 kPa, x1 = 0.0089 | 0.685
323.15 K, 101 kPa, x1 = 0.01 | 0.6996
323.15 K, 101 kPa, x1 = 0.0103 | 0.7078
323.15 K, 101 kPa, x1 = 0.0107 | 0.6878
323.15 K, 101 kPa, x1 = 0.0112 | 0.716
323.15 K, 101 kPa, x1 = 0.012 | 0.7295
323.15 K, 101 kPa, x1 = 0.0122 | 0.7288
323.15 K, 101 kPa, x1 = 0.014 | 0.76
323.15 K, 101 kPa, x1 = 0.0142 | 0.7324
323.15 K, 101 kPa, x1 = 0.015 | 0.7741
323.15 K, 101 kPa, x1 = 0.016 | 0.791
323.15 K, 101 kPa, x1 = 0.0169 | 0.8041
323.15 K, 101 kPa, x1 = 0.0177 | 0.7979
323.15 K, 101 kPa, x1 = 0.018 | 0.8226
323.15 K, 101 kPa, x1 = 0.0194 | 0.8507
323.15 K, 101 kPa, x1 = 0.02 | 0.8547
323.15 K, 101 kPa, x1 = 0.022 | 0.8874
323.15 K, 101 kPa, x1 = 0.0228 | 0.8982
323.15 K, 101 kPa, x1 = 0.024 | 0.9206
323.15 K, 101 kPa, x1 = 0.026 | 0.9544
323.15 K, 101 kPa, x1 = 0.028 | 0.9887

Source: the CheMixHub viscosity set
